Laboratory results taken from patent US20100004165A1, “Novel Protein Transduction Domains and Uses Therefor” (The Arizona Board of Regents, a body corporate acting on …, priority 2005, published 2010).
Square brackets hold non-standard residues; d marks the D form. Ends that are not written are not given here. pS = N[C@@H](COP(=O)(O)O)C(=O)O

Columns and labels:
porcine ear skin [1] = assay: In vitro skin penetration and transdermal delivery, porcine ear skin in Franz diffusion cell, spectrofluorimetry (Example 3); settings: up to 8 hours post-application
Procedure: Fluorescence microscopy was used to visualize the peptides in different skin layers.
Formulations: Except in the experiments involving chemical penetration enhancers, FITC-labeled peptides were dissolved in phosphate-buffered saline (PBS, 10 mM, pH 7.2); the peptide concentration was 100 μM. In the experiment involving penetration enhancers, PBS could not be used as a solvent because of the lipophilic nature of monoolein and oleic acid. Propylene glycol was used as a solvent, since it solubilizes both lipids and peptides. […] The formulations were prepared by mixing monoolein or oleic acid with propylene glycol and adding the peptides to the system immediately thereafter.
Porcine ear skin was used as model skin for in vitro skin penetration studies because of its similarity with human skin, especially regarding histological and biochemical properties and permeability to drugs (33). Freshly excised porcine ears were obtained from a local abattoir. The skin from the outer surface of the ear was carefully dissected; making sure that the subcutaneous fat was maximally removed (34). Maximum care was taken to maintain the integrity of the skin, which was assured by histology. The cleaned porcine ear skin was immediately mounted in a Franz diffusion cell (diffusion area of 1 cm^2; Laboratory Glass Apparatus, Inc, Berkeley, Calif., USA), with the stratum corneum facing the donor compartment (where the formulation was applied) and the dermis facing the receptor compartment, which was filled with PBS (100 mM, pH 7.2, 3 mL). The receptor phase was maintained at 37° C. and under constant stirring. To achieve higher reproducibility, the skin samples were equilibrated to the diffusion cell conditions for 30 minutes before application of any formulation.
PBS solutions or propylene glycol formulations of the peptides (70 μL each) were applied to the skin surface (donor compartment). […] The concentrations of FITC-P20 (SEQ ID NO: 9), FITC-YARA-P20 (SEQ ID NO: 42), and FITC-TAT-P20 (SEQ ID NO: 43) in the skin and receptor phase were determined at 0.5, 1, 2, 4, and 8 hour post-application.
At the end of the experiment, skin surfaces were thoroughly washed with distilled water to remove excess formulation and carefully wiped with a tissue paper. To separate the stratum corneum (SC) from the remaining epidermis (E) and dermis (D), the skin was subjected to tape stripping. The skin was stripped with 15 pieces of adhesive tape (3M, St. Paul, Minn., USA), and the tapes containing the SC were immersed in 3 mL of a water:methanol (1:1 v/v) solution, vortexed for 2 min, and bath sonicated for 30 minutes. The remaining [E+D] was cut in small pieces, vortexed for 2 minutes in 2 mL of a water:methanol (1:1 v/v) solution, and homogenized using a tissue grinder for 1 minute and bath sonication for 30 minutes. The resulting mixture was centrifuged for 1 minute. The peptide present in the receptor phase was concentrated (10×) as follows. Samples (2 mL) of the receptor phase were lyophilized for 24 hours, and the residue was dissolved in 200 μL of a hidroalcoholic (20% of ethanol) solution.
All solutions were subjected to fluorimetry analysis using a Gemini SpectraMax™ platereader (Molecular Devices, Sunnyvale, Calif., USA) with excitation at 495 nm and emission at 518 nm. […] To evaluate the recovery of the peptides from the skin in the extraction procedure, tissues sections (1 cm^2) were spiked with 20 μL of 0.2 and 0.5 mM solutions of the peptides. The skin sections were homogenized using a tissue grinder, vortex-mixer, and bath sonicator, as described above. […] We accounted for such a recovery percentage in the quantification of peptides.

porcine ear skin [2] = assay: Fluorescence microscopy of skin sections after peptide application; settings: 4 hours post-application
Excerpt: The skin sections (8 μm) were mounted on glass slides. The slides were visualized without any additional staining or treatment through a 20× objective using a Zeiss microscope (Carl Zeiss, Thornwood, N.Y., USA) equipped with a filter for FITC and AxioVision software.

[3] = system: connective tissue growth factor (CTGF); assay: TGFβ1-induced CTGF expression in human keloid fibroblasts (immunoblot); type: cell-based; settings: 24 hours; for reduction of CTGF expression compared to TGFβ1 treatment: 50 μM peptide
Procedure: As a key marker of the anti-fibrotic activity of HSP20 peptides, we have previously examined expression levels of connective tissue growth factor (CTGF) in human keloid fibroblasts after stimulation with transforming growth factor beta 1 (TGFβ1). Cells were grown in 10 cm^2 dishes to 70% confluence in DMEM with 10% fetal bovine serum (FBS) and additional penicillin and streptomycin (1%), at 37° C. and 10% CO2. Cells were serum starved in DMEM containing 0.5% FBS for 48 hours before the experiment. Cells were either untreated (control) or treated with TGFβ1 (2.5 ng/mL) in the presence or absence of WL-P20 (SEQ ID NO: 10) phosphopeptide ([…]p[…], where pS is phosphoserine) (10 or 50 μM) for 24 hours. At the end of the experiment, cells were rinsed with PBS, and homogenized using urea-dithiothreitol-chaps (UDC) buffer. Lysates were mixed, centrifuged (6000×g) for 20 minutes, and the supernatant was used for determination of protein expression. Samples (20 μg of protein) were loaded on 15% SDS-PAGE gels, and the proteins were electrophoretically transferred to Immobilon membranes. Immunoblotting with CTGF antibodies was used in conjunction with near infrared detection antibodies to determine CTGF expression (Odyssey Li-Cor, Lincoln, Nebr.). Loading differences were corrected for by normalizing to GAPDH expression
(§1) Human keloid fibroblasts were serum-starved in DMEM medium containing 0.5% FBS for 48 hours, and treated with 2.5 ng/mL of TGF-betal for 24 hours and concomitantly treated with the WL-20 (SEQ ID NO: 10) (10 or 50 μM) for 24 hours. The Western blot bands were quantified by densitometry, and CTGF and collagen expression were related to GAPDH expression to correct for loading differences. The expression of CTGF and collagen in control cells was set to 1 for comparison of different blots.

[4] = system: primary rat astrocyte cells; assay: Transduction across cell membranes in primary rat astrocyte cells; type: cell-based
Procedure: The in vitro model used to assess transduction across cell membranes was primary rat astrocyte cells. Cells were isolated as described (Innocenti et. al., J. Neurosci. 20:1800-1808, 2000), seeded at ˜3×10^4 cells/cm^2, and cultured in full serum (10% FBS in α-MEM) overnight. Some cells were serum starved by culturing in 0.5% FBS for 1-24 hours prior to treatment with transduction peptides.

porcine ear skin [5] = assay: Ex vivo skin transduction, porcine ear skin in modified Franz diffusion cell (Example 2); type: in vitro ADME; settings: 100 uM, conjugated or alone (FIG. 1, Panel C)
Procedure: The ex vivo model selected for skin transduction studies was freshly excised porcine ears. […] The system was maintained at 37° C. and under constant stirring. […] The amount of peptides that permeated across the skin was determined in the receptor phase; 1.5 mL of the receptor phase was withdrawn, lyophilized and the residue was suspended in 150 μL of water. […] Standard curves of the peptides were used as reference.

anal canal = settings: 1 mM in K-Y Jelly, 4 hours
Procedure: (§2) Peptide was applied to both the vagina and anal canal using an applicator and allowed to penetrate for 4 hours. Tissue was excised and embedded in frozen tissue embedding medium (HistoPrep) for cryosectioning. Sections were mounted in anti-fade reagent and examined using fluorescence microscopy (Zeiss Axiovert).

vagina = settings: 1 mM in K-Y Jelly, 4 hours
Procedure: as §2

Rat aorta = assay: Vasorelaxation of rat aorta rings pre-contracted with KCl (muscle bath)
Procedure: Rat aorta was isolated and dissected free from connective and fat tissue. Transverse rings, 3.0 mm in width, were cut and tied to silk suture. The tissue was suspended in a muscle bath containing a bicarbonate buffer (120 mM NaCl, 4.7 mM KCl, 1.0 mM MgSO4, 1.0 mM NaH2PO4, 10 mM glucose, 1.5 mM CaCl2, and 25 mM […], pH 7.4) and equilibrated with 95% O2/5% CO2 at 37° C. The rings were fixed at one end to a stainless steel wire and attached to a force transducer in muscle perfusion system (Radnotti). The rings were then progressively stretched, and the isometric force generated in response to 110 mM KCl (with equimolar replacement of NaCl in bicarbonate buffer) was determined until the consistent maximal force was produced. Agonists and peptide was added directly to the baths. Tissue that was pre-contracted with 110 mM potassium chloride (KCl) followed by 1.0 mM WL-P20 ([…]p[…], pS is phosphoserine) (SEQ ID NO: 10), where pS is phosphoserine) relaxed compared to untreated control (13% relaxation at 10 minutes, 50% relaxation at 30 minutes, and maximum 88% relaxation at ˜60 minutes, FIG. 4). Percent relaxation was calculated relative to maximum force generated with KCl. […] Such a difference may result from different mechanisms of penetration and/or intracellular localization.

collagen = assay: TGFβ1-induced collagen expression in human keloid fibroblasts (Western blot); type: cell-based; settings: 10 or 50 μM, 24 hours
Procedure: as §1

## WLRRApSAPLPGLK (WLRRA[pS]APLPGLK; also: FITC label) [P20, fragment of HSP20, cargo peptide, pS is phosphoserine]
Porcine ear skin [1]
  permeation across the skin, in words: did not permeate across the skin at all
Porcine ear skin [2]
  localisation of fluorescence in skin layers: fluorescence was found only in the SC
[3]
  reduction of CTGF expression compared to TGFβ1 treatment: 30%

## WLRRIKAWLRRApSAPLPGLK (WLRRIKAWLRRA[pS]APLPGLK) [WL-P20]
[4]
  time of maximal transduction: approximately 20 minutes
[4]; 1 μM
  transduction: no transduction
[4]; 25 μM
  transduction: slightly reduced transduction
[4]; 50 μM
  transduction: efficient transduction
Porcine ear skin [5]
  skin penetration: significantly enhanced
Anal canal
  fluorescence in the anal canal: only minimal fluorescence
vagina
  mucosal penetration in the vagina: Mucosal penetration in the vagina was achieved
Rat aorta
  time of maximum relaxation: ~60 min
Rat aorta; 1.0 mM peptide, 110 mM KCl pre-contraction
  maximum relaxation relative to maximum force generated with KCl: 88%
Rat aorta; 1.0 mM peptide, 110 mM KCl pre-contraction, at 10 minutes
  relaxation relative to maximum force generated with KCl: 13%
Rat aorta; 1.0 mM peptide, 110 mM KCl pre-contraction, at 30 minutes
  relaxation relative to maximum force generated with KCl: 50%
[3]
  reduction of CTGF expression compared to TGFβ1 treatment: 46%
[3]; 10 or 50 μM
  effect on TGFβ1-induced CTGF expression: inhibits
collagen
  effect on TGFβ1-induced collagen expression: inhibits
